Data reported in US20260008768A1, “UREA DERIVATIVES FOR INHIBITING NLRP3 AND USES THEREOF” (VENTUS THERAPEUTICS U.S., INC., priority 2023, published 2026).

Assays:
[1] = biological target: T1, human NLRP3 (Homo sapiens, UniProt Q96P20); assay: Scintillation Proximity (SPA) NLRP3 Assay, displacement of 3H-MCC950; type: binding; conditions: for IC50: displacement of 3H-MCC950 from human NLRP3
In short: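 Human NLRP3 (350 nM) preincubated 15 min at RT with compound (5% DMSO final) in HEPES pH 7.5 buffer with 100 μM ADP, then 125 nM 3H-MCC950 added for 60 min. Copper PVT SPA beads added; counts read 6 h later. Specific binding = signal minus no-protein wells, duplicates averaged; IC50 reported.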

[2] = biological target: T1, human NLRP3; assay: Human Whole Blood (hWB) NLRP3 Assay (LPS/ATP, IL-1β); type: cell-based; set-up: host or cells: human whole blood from healthy volunteers (A3)
Description: Human whole blood is drawn from healthy volunteers after obtaining written informed consent. Heparin lithium coated tubes are used to collect blood from volunteers. Blood samples are distributed on 96 well plates using 90 μl per well.
Priming procedure: Priming is performed by adding 5 μl of LPS (O26:B6; Sigma L-2654) at a final concentration of 1 μg/ml for 4.5 hours in a humidified incubator with 37° C., 5% CO2. Thirty minutes prior to NLRP3 activation, 5 μl of a 20× compound solution or vehicle (2% dimethylsulfoxide (DMSO)) is added to each well and plates were incubated on a shaker (450 rpm) in a humidified incubator with 37° C., 5% CO2.
Alternative priming procedure: Thirty minutes prior to LPS priming, 5 μl of a 20× compound solution or vehicle (2% dimethylsulfoxide (DMSO)) is added to each well and plates were incubated on a shaker (450 rpm) in a humidified incubator with 37° C., 5% CO2. Priming is performed by adding 5 μl of LPS (O26:B6; Sigma L-2654) at a final concentration of 1 μg/ml for 5 hours in a humidified incubator with 37° C., 5% CO2.
Activation is then performed by adding 3.3 μl of a 31×ATP solution per well. At the end of the 30 minutes stimulation, the plates are centrifuged (800 g, 10 min, room temperature) and the plasma from each well is frozen at −80° C. IL-1β levels in the supernatant were analyzed using a mesoscale discovery assay (MSD K151TUK) according to the manufacturers' instructions.
There is no detectable difference in assay results using the priming procedure versus the alternative priming procedure.
hWB NLRP3 IC50 assay results, as a measurement of whole blood potency, are provided in Table B. “A” activity=<1 uM; “B” activity=1-2 uM; “C” activity=>2-3 uM; “D” activity=>3 uM.

[3] = biological target: T1, human NLRP3; assay: Human PBMC NLRP3 Assay (LPS priming, ATP stimulation, cytokine measurement); type: cell-based; set-up: host or cells: human PBMCs (A2); human whole blood from healthy volunteers (A3); conditions: human PBMC, LPS + ATP
Description: Reagents: Human PBMCs (Normal): iXCells Cat #10HU-003; RPMI 1640 medium with GlutaMAX: ThermoFisher Cat #61870127 (Complete Media: 4.5 g/L D-glucose, 10% FBS, 100 mM NaPyr, 1% Pen/Strep, 10 mM HEPES and 0.05 mM of ®-mercaptoethanol; Assay Media: 4.5 g/L D-glucose, 100 mM NaPyr, 1% Pen/Strep, 10 mM HEPES and 0.05 mM of mercaptoethanol; 96-well V-bottom Plates: Costar Cat #3894; LPS (E. coli O26:B6): Sigma Cat #L2654, stock 5 mg/mL in PBS; ATP: Sigma Cat #A6419, prepared in a 250 mM stock in 1 M HEPES (adjusted to pH 7.4).
Cryopreserved PBMCs were rapidly thawed in a 37° C. water bath for 2 min. Cells were then centrifuged at 1200 RPM for 5 min and resuspended in ˜50 mL of fresh RPMI 1640 Complete Medium. A count was undertaken using a hemocytometer and adjusted to 2.5×10^5 cells/mL. V-shaped 96-well plates were seeded with 200 μL of PBMCs (5×10^4) per well and subsequently incubated overnight at 37° C. with 5% CO2. Assay Media was then prepared containing 100 ng/ml of LPS. PBMCs were then centrifuged at 1,200 RPM for 5 min, serum containing media was aspirated, and 150 μL/well of Assay Media+LPS was immediately added. Assay Media without LPS was added in the untreated control wells. Cells were then primed with LPS for 4 h at 37° C. with 5% CO2. A concentration response curve (CRC) was prepared of 1000× test compound in 100% DMSO. The CRC was then diluted 1:50 in Assay Media and then further diluted by 1:5× in Assay Media resulting in a final 4×CRC in 0.4% DMSO/Assay Media. 50 μL/well of 4× test compound CRC or vehicle (0.4% DMSO/Assay Media) was then transferred into each well and subsequently incubated for 30 min at 37° C. with 5% CO2. Cells were stimulated by adding 4 μL of 250 mM ATP, using a 250 mM stock prepared in 1 M Hepes without further dilution (for a final concentration of 5 mM), for 1 h at 37° C. with 5% CO2 Plates were then centrifuged at 1200 RPM for 5 min; and 50 μl of the media was transferred to a clean 96-well storage plate for cytokine measurements using the mesoscale platform, and stored at −80° C. until analyzed. Compounds were added 30 minutes before priming the cells with LPS when TNFα was required to be quantified in the cytokine panel to confirm selectivity.
PBMC NLRP3 IC50 assay results, as a measurement of cellular potency, are provided in Table B. “A” activity=<0.01 uM; “B” activity=0.01-0.1 uM; “C” activity=>0.1-0.5 uM; “D” activity=>0.5 uM.

T1 sequence (Q96P20 whole entry): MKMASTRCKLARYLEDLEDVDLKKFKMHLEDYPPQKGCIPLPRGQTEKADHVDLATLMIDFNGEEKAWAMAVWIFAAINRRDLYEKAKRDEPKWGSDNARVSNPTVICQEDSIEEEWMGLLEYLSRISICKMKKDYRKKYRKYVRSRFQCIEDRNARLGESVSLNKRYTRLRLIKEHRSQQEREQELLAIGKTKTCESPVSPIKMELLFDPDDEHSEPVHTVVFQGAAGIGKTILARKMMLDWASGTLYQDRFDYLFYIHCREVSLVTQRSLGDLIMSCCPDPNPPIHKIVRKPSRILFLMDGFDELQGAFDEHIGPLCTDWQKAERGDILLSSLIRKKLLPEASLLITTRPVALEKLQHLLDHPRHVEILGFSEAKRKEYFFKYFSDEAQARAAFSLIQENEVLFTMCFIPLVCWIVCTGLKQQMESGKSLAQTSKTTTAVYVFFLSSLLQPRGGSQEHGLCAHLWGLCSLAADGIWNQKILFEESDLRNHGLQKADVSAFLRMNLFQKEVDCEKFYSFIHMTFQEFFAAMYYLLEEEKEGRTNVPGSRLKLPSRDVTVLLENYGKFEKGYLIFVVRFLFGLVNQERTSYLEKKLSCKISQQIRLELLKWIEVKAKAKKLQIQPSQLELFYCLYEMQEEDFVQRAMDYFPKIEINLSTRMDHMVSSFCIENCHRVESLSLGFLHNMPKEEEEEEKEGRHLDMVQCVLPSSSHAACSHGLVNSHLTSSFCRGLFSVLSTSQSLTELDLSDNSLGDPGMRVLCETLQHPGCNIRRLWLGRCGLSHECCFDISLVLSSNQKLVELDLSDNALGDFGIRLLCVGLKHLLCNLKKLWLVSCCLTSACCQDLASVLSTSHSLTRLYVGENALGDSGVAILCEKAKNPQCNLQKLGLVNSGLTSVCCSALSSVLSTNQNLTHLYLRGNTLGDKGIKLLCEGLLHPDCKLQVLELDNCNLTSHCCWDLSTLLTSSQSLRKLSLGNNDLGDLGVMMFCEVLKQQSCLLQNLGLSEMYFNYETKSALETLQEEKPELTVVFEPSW

Row | SMILES | IC50 ([1]; Table B, activity class) [nM] | IC50 ([2]; Table B, activity class) [nM] | IC50 ([3]; Table B, activity class) [nM] | IC50 ([1]; Table C) [nM] | fold improvement in binding activity (SPA IC50) ([1]; relative to Compound 27A*) [fold] | IC50 ([2]; Table C) [nM] | IC50 ([3]; Table C) [nM] | fold improvement in binding activity (SPA IC50) ([1]; relative to Comparative Example B1) [fold]
1 | C[C@@H]1CCN(c2nnn[nH]2)C[C@H](NC(=O)N(C)c2cnc(C(F)(F)F)cn2)C1 (single isomer, unassigned) [32A*] | 10000 to 50000 | > 3000 |  |  |  |  |  | 
2 | C[C@@H]1CCN(c2nnn[nH]2)C[C@H](NC(=O)N(C)c2ccc(OC(F)(F)F)c(F)c2)C1 (single isomer, unassigned) [14A*] | < 1000 | 1000 to 2000 | 10 to 100 |  |  |  |  | 
3 | C[C@@H]1CCN(c2nnn[nH]2)C[C@H](NC(=O)N(C)c2c(F)cc(C3CC3)cc2F)C1 (single isomer, unassigned) [20A*] | < 1000 | < 1000 | < 10 |  |  |  |  | 
4 | CCN(C(=O)N[C@@H]1C[C@@H](C)[C@@H]2CC[C@H]1N2c1nnn[nH]1)c1ccc(OC(F)F)cc1F (single isomer, unassigned) [65A*] | < 1000 | < 1000 |  |  |  |  |  | 
5 | C[C@@H]1CCN(c2nnn[nH]2)C[C@H](NC(=O)N(C)c2ccc(Cl)cc2F)C1 (single isomer, unassigned) [5A*] | < 1000 | < 1000 | < 10 | 71 | > 19 | 36 | 4 | 
6 | C[C@@H]1CCN(c2nnn[nH]2)C[C@H](NC(=O)N(CC2CC2)c2ccc(OC(F)(F)F)cc2)C1 (single isomer, unassigned) [44A*] | < 1000 | 2000 to 3000 |  |  |  |  |  | 
7 | C[C@@H]1CCN(c2nnn[nH]2)C[C@H](NC(=O)N(C)c2ccc(OC(F)F)c(F)c2)C1 (single isomer, unassigned) [15A*] | < 1000 | < 1000 | < 10 |  |  |  |  | 
8 | C[C@@H]1C[C@@H](NC(=O)N(C)c2ccc(C(F)(F)F)c(F)c2F)[C@H]2CC[C@@H]1N2c1nnn[nH]1 (single isomer, unassigned) [47A*] | < 1000 | 1000 to 2000 |  |  |  |  |  | 
9 | C[C@@H]1CCN(c2nnn[nH]2)C[C@H](NC(=O)N(C)c2ccc(C(F)F)c(F)c2)C1 (single isomer, unassigned) [22A*] | < 1000 | 1000 to 2000 |  |  |  |  |  | 
10 | CCN(C(=O)N[C@@H]1C[C@H](C)CN(c2nnn[nH]2)C1)c1ccc(Cl)cc1 [Compound 6A, 1-(4-chlorophenyl)-1-ethyl-3-((3R,5S)-5-methyl-1-(1H-tetrazol-5-yl)piperidin-3-yl)urea] | < 1000 |  | 10 to 100 |  |  |  |  | 
11 | CN(C(=O)Nc1cccc(-c2nnn[nH]2)c1)c1ccc(Cl)cc1 [Comparative Example B2, 3-(3-(1H-tetrazol-5-yl)phenyl)-1-(4-chlorophenyl)-1-methylurea, reference compound] |  |  |  | 12500 |  |  | 4200 | > 15
